From PubChem BioAssay (NCI)
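Cultured in 96-well plates, cells were exposed to test compound for 48 hours across five concentrations. Abbreviation: GI50, concentration required for 50% inhibition of growth. TGI denotes the concentration required for complete inhibition of growth.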

Experiments:
Experiment in all cases: DTP human tumour cell line panel, 48 h
[1] = test system: 786-0 renal
[2] = test system: A549 NSCLC
[3] = test system: ACHN renal
[4] = test system: BT-549 breast
[5] = test system: CAKI-1 renal
[6] = test system: CCRF-CEM leukemia
[7] = test system: COLO 205 colon
[8] = test system: DU-145 prostate
[9] = test system: HCC-2998 colon
[10] = test system: HCT-116 colon
[11] = test system: HCT-15 colon
[12] = test system: HL-60(TB) leukemia
[13] = test system: HOP-62 NSCLC
[14] = test system: HOP-92 NSCLC
[15] = test system: HS 578T breast
[16] = test system: HT29 colon
[17] = test system: IGROV1 ovarian
[18] = test system: K-562 leukemia
[19] = test system: KM12 colon
[20] = test system: LOX IMVI melanoma
[21] = test system: M14 melanoma
[22] = test system: MALME-3M melanoma
[23] = test system: MCF7 breast
[24] = test system: MDA-MB-231 breast
[25] = test system: MDA-MB-435
[26] = test system: MOLT-4 leukemia
[27] = test system: NCI-H226 lung
[28] = test system: NCI-H23 lung
[29] = test system: NCI-H460 lung
[30] = test system: NCI-H522 lung
[31] = test system: NCI/ADR-RES ovarian
[32] = test system: OVCAR-3 ovarian
[33] = test system: OVCAR-4 ovarian
[34] = test system: OVCAR-5 ovarian
[35] = test system: OVCAR-8 ovarian
[36] = test system: PC-3 prostate
[37] = test system: RPMI-8226 leukemia
[38] = test system: RXF 393 renal
[39] = test system: SF-268 CNS
[40] = test system: SF-295 CNS
[41] = test system: SF-539 CNS
[42] = test system: SK-MEL-2 melanoma
[43] = test system: SK-MEL-28 melanoma
[44] = test system: SK-MEL-5 melanoma
[45] = test system: SK-OV-3 ovarian
[46] = test system: SN12C renal
[47] = test system: SNB-19 CNS
[48] = test system: SNB-75 CNS
[49] = test system: SR leukemia
[50] = test system: SW-620 colon
[51] = test system: T-47D breast
[52] = test system: TK-10 renal
[53] = test system: U251 CNS
[54] = test system: UACC-62 melanoma
[55] = test system: UO-31 renal
[56] = test system: A498 renal
[57] = test system: UACC-257 melanoma

COc1ccc(-c2nsc3c2NC(=O)CC3c2cccc(F)c2)cc1 (centres undefined)
GI50 [1]: 8.22 µM | TGI [1]: > 100 µM | GI50 [2]: 5.16 µM | TGI [2]: > 100 µM | GI50 [3]: 5.95 µM | TGI [3]: > 100 µM | GI50 [4]: 7.77 µM | TGI [4]: > 100 µM | GI50 [5]: 4.69 µM | TGI [5]: > 100 µM | GI50 [6]: 4.89 µM | TGI [6]: > 100 µM | GI50 [7]: 2.95 µM | TGI [7]: > 100 µM | GI50 [8]: 5.29 µM | TGI [8]: > 100 µM | GI50 [9]: 7.18 µM | TGI [9]: > 100 µM | GI50 [10]: 4.14 µM | TGI [10]: > 100 µM | GI50 [11]: 2.41 µM | TGI [11]: > 100 µM | GI50 [12]: 4.21 µM | TGI [12]: > 100 µM | GI50 [13]: 8.79 µM | TGI [13]: > 100 µM | GI50 [14]: 3.57 µM | TGI [14]: 40.6 µM | GI50 [15]: 3.95 µM | TGI [15]: > 100 µM | GI50 [16]: 3.11 µM | TGI [16]: > 100 µM | GI50 [17]: 13.8 µM | TGI [17]: > 100 µM | GI50 [18]: 2.65 µM | TGI [18]: > 100 µM | GI50 [19]: 2.48 µM | TGI [19]: > 100 µM | GI50 [20]: 6.5 µM | TGI [20]: > 100 µM | GI50 [21]: 3.44 µM | TGI [21]: > 100 µM | GI50 [22]: 6.08 µM | TGI [22]: > 100 µM | GI50 [23]: 3.89 µM | TGI [23]: > 100 µM | GI50 [24]: 6.34 µM | TGI [24]: > 100 µM | GI50 [25]: 0.827 µM | TGI [25]: 4.07 µM | GI50 [26]: 5 µM | TGI [26]: > 100 µM | GI50 [27]: 6.74 µM | TGI [27]: > 100 µM | GI50 [28]: 5.02 µM | TGI [28]: > 100 µM | GI50 [29]: 3.63 µM | TGI [29]: > 100 µM | GI50 [30]: 3.39 µM | TGI [30]: > 100 µM | GI50 [31]: 2.96 µM | TGI [31]: 16.7 µM | GI50 [32]: 3.32 µM | TGI [32]: 12.3 µM | GI50 [33]: 50.2 µM | TGI [33]: > 100 µM | GI50 [34]: 7.86 µM | TGI [34]: > 100 µM | GI50 [35]: 7.54 µM | TGI [35]: > 100 µM | GI50 [36]: 4.93 µM | TGI [36]: > 100 µM | GI50 [37]: 4.18 µM | TGI [37]: > 100 µM | GI50 [38]: 4.04 µM | TGI [38]: > 100 µM | GI50 [39]: 6.86 µM | TGI [39]: > 100 µM | GI50 [40]: 6.68 µM | TGI [40]: > 100 µM | GI50 [41]: 5.19 µM | TGI [41]: > 100 µM | GI50 [42]: 3.3 µM | TGI [42]: 9.19 µM | GI50 [43]: 7.37 µM | TGI [43]: > 100 µM | GI50 [44]: 2.81 µM | TGI [44]: > 100 µM | GI50 [45]: 5.28 µM | TGI [45]: > 100 µM | GI50 [46]: 5.2 µM | TGI [46]: > 100 µM | GI50 [47]: 5.91 µM | TGI [47]: > 100 µM | GI50 [48]: 4.78 µM | TGI [48]: 86.2 µM | GI50 [49]: 2.44 µM | TGI [49]: > 100 µM | GI50 [50]: 3.08 µM | TGI [50]: > 100 µM | GI50 [51]: 4.81 µM | TGI [51]: > 100 µM | GI50 [52]: 5.26 µM | TGI [52]: > 100 µM | GI50 [53]: 5.55 µM | TGI [53]: > 100 µM | GI50 [54]: 4.35 µM | TGI [54]: > 100 µM | GI50 [55]: > 100 µM | TGI [55]: > 100 µM

Fc1ccc(-c2c(-c3ccncc3)[nH]c3cccnc23)cc1
GI50 [1]: > 25 µM | TGI [1]: > 25 µM | GI50 [56]: > 14.8 µM | TGI [56]: > 25 µM | GI50 [2]: 17 µM | TGI [2]: > 25 µM | GI50 [3]: 1.63 µM | TGI [3]: > 25 µM | GI50 [4]: > 25 µM | TGI [4]: > 25 µM | GI50 [5]: 7.43 µM | TGI [5]: > 25 µM | GI50 [6]: > 25 µM | TGI [6]: > 25 µM | GI50 [7]: 18.6 µM | TGI [7]: > 25 µM | GI50 [8]: > 22.7 µM | TGI [8]: > 25 µM | GI50 [9]: > 25 µM | TGI [9]: > 25 µM | GI50 [10]: > 25 µM | TGI [10]: > 25 µM | GI50 [11]: 15.4 µM | TGI [11]: > 25 µM | GI50 [12]: > 25 µM | TGI [12]: > 25 µM | GI50 [13]: > 25 µM | TGI [13]: > 25 µM | GI50 [14]: 22.3 µM | TGI [14]: > 25 µM | GI50 [15]: > 25 µM | TGI [15]: > 25 µM | GI50 [16]: 8.18 µM | TGI [16]: > 25 µM | GI50 [17]: 8.45 µM | TGI [17]: > 25 µM | GI50 [18]: > 23.1 µM | TGI [18]: > 25 µM | GI50 [19]: > 25 µM | TGI [19]: > 25 µM | GI50 [20]: > 21.7 µM | TGI [20]: > 25 µM | GI50 [21]: > 25 µM | TGI [21]: > 25 µM | GI50 [22]: > 21.9 µM | TGI [22]: > 25 µM | GI50 [23]: 13.8 µM | TGI [23]: > 25 µM | GI50 [24]: > 25 µM | TGI [24]: > 25 µM | GI50 [25]: > 25 µM | TGI [25]: > 25 µM | GI50 [26]: > 25 µM | TGI [26]: > 25 µM | GI50 [27]: > 15.2 µM | TGI [27]: > 25 µM | GI50 [28]: > 25 µM | TGI [28]: > 25 µM | GI50 [29]: 18.3 µM | TGI [29]: > 25 µM | GI50 [30]: > 19.8 µM | TGI [30]: > 25 µM | GI50 [31]: > 25 µM | TGI [31]: > 25 µM | GI50 [32]: > 22.2 µM | TGI [32]: > 25 µM | GI50 [33]: > 25 µM | TGI [33]: > 25 µM | GI50 [34]: > 25 µM | TGI [34]: > 25 µM | GI50 [35]: > 25 µM | TGI [35]: > 25 µM | GI50 [36]: > 25 µM | TGI [36]: > 25 µM | GI50 [37]: > 25 µM | TGI [37]: > 25 µM | GI50 [38]: > 20.4 µM | TGI [38]: > 25 µM | GI50 [39]: > 25 µM | TGI [39]: > 25 µM | GI50 [40]: > 25 µM | TGI [40]: > 25 µM | GI50 [41]: > 25 µM | TGI [41]: > 25 µM | GI50 [42]: > 25 µM | TGI [42]: > 25 µM | GI50 [43]: > 25 µM | TGI [43]: > 25 µM | GI50 [44]: 24.3 µM | TGI [44]: > 25 µM | GI50 [45]: 10.6 µM | TGI [45]: > 25 µM | GI50 [46]: 18.8 µM | TGI [46]: > 25 µM | GI50 [47]: > 25 µM | TGI [47]: > 25 µM | GI50 [48]: > 17.8 µM | TGI [48]: > 25 µM | GI50 [49]: > 18.9 µM | TGI [49]: > 25 µM | GI50 [50]: > 25 µM | TGI [50]: > 25 µM | GI50 [51]: 13.4 µM | TGI [51]: > 25 µM | GI50 [52]: 3.02 µM | TGI [52]: > 25 µM | GI50 [53]: > 25 µM | TGI [53]: > 25 µM | GI50 [57]: > 25 µM | TGI [57]: > 25 µM | GI50 [54]: 12 µM | TGI [54]: > 25 µM | GI50 [55]: 3.2 µM | TGI [55]: > 25 µM
